Measured values as given in patent US20220280594A1, “APPLICATION OF POLYPEPTIDE OR DERIVATIVE THEREOF” (CHENGDU HUITAI BIOMEDICINE CO., LTD., priority 2019, published 2022).
Ends that are not written are not given here. PEG = not defined here

Assays:
[1] = test system: human lung cancer cells (95D); test: scratch assay, migration of 95D cells; type: cell-based; settings: 10 μM, 48 hours, control group 55.3 ± 3.19
Method: (§1) In the scratch assay, the cell migration rate was negatively correlated with the inhibitory effect of the drug component on tumor cell migration ability. The cell migration inhibition experiment was described as follows: tumor cells were cultured in vitro, cells in logarithmic growth phase were collected and seeded evenly in a 24-well plate at a density of 1-2×10^5 cells/well; the cells were cultured in a cell incubator until a monolayer was formed; a scratch tool was used to make a “-” (straight) scratch on the monolayer of cells; the cells were washed 1-3 times with PBS, and a medium (with 2% fetal bovine serum) containing specific test components was added to the culture. Experimental grouping: PBS control group; polypeptide or derivative thereof treatment group (N1-N54), 10 μM. Three independent parallel wells were set up in each group, and the cells were cultured continuously in a cell incubator for 48 hours. […] At least 3 representative images for each well were taken. ImageJ software was used to count the migration distance of the cells, and the cell migration rate was calculated as: cell migration rate (%)=(width of original scratch−width of current scratch)/width of original scratch×100.
This example was a scratch assay to evaluate the inhibitory effect of the polypeptide or derivative thereof (N1-N54) on the migration ability of human lung cancer cells (95D). The experimental method was as described in Example 2.

[2] = test system: human lung cancer cells (A549) subcutaneous xenograft; test: lung cancer subcutaneous xenograft animal model, intravenous injection; type: in vivo, mice (BALB/c-nu/nu); settings: intravenous 60 mg/kg once every other day, 20 days; for Weight of tumor (g) (mean ± SD): control 2.53 ± 0.17; for Volume of tumor (mm^3) (mean ± SD): control 3373.26 ± 581.44
Method: Experimental animals: 4-6 weeks old female immunodeficiency mice (BALB/c-nu/nu, Beijing Vital River Laboratory Animal Technology Co., Ltd.).
Subcutaneous xenograft animal model. The number of cells inoculated subcutaneously vin mice was about 2×10^6/200 μL. When the volume of the subcutaneous tumor was greater than 100 mm^3, the mice were randomly divided into groups and subjected to treatment. When the mass volume of the tumors in model control group reached 2000 mm^3 or the animal dies, the treatment ended. The animals were dissected, the tumors were taken out, and the weight and volume of the tumors were measured. During the period of the entire experiment, the mice were observed and the body weight was measured every other day.
The method used in the efficacy test on the lung cancer subcutaneous xenograft animal model was as described in Example 5. The lung cancer cells were the human lung cancer cells (A549), and the route of administration was intravenous injection. This example involved a total of 3 experiments to evaluate N1-N15, N16-N30, and N31-N54 respectively. The experimental procedure, route of administration, dosage and frequency of administration, and detection method were all consistent in the three experiments. The experimental groups were model control group and polypeptide or derivative thereof treatment groups (N1-N15, N16-N30, or N31-N54). The drug dosage of the N1-N54 treatment groups was 60 mg/kg, and the treatment time was 20 days.

[3] = test system: human pancreatic cancer cells (PANC-1); test: scratch assay, migration of PANC-1 cells; type: cell-based; settings: PANC-1, 10 μM, 48 hours; control group 66.65 ± 3.37
Method: as §1
This example was a scratch assay to evaluate the inhibitory effect of the polypeptide or derivative thereof (N1-N54) on the migration ability of human pancreatic cancer cells (PANC-1). The experimental method was as described in Example 2.

[4] = test system: human colon cancer cells (HCT-116); test: scratch assay, migration of HCT-116 cells; type: cell-based; settings: HCT-116, 10 μM, 48 hours; control group 47.78 ± 6.07
Method: as §1
This example was a scratch assay to evaluate the inhibitory effect of the polypeptide or derivative thereof (N1-N54) on the migration ability of human colon cancer cells (HCT-116). The experimental method was as described in Example 2.

[5] = test system: human pancreatic cancer cells (PANC-1); test: transwell invasion assay, PANC-1 cells; type: cell-based; settings: PANC-1 transwell invasion, 10 μM, 24 hours; control group 727 ± 68
Excerpt: The Transwell chamber system was used in the transwell cell invasion experiment. The chamber has an upper layer and a lower layer, which are separated by an artificial semipermeable membrane in the middle. The upper surface of the semipermeable membrane is coated with a layer of artificial matrigel to simulate extracellular matrix. Cells that have invaded through the matrigel and semi-permeable membrane will attach to the lower surface of the semi-permeable membrane. The invasion ability is evaluated by counting the number of cells on the lower surface of the semi-permeable membrane. The number of cells that have invaded is negatively correlated with the inhibitory effect of the drug on the invasion ability of the tumor cells. Transwell invasion assay was performed as follows: tumor cells were cultured in vitro, cells in logarithmic growth phase were collected, and cell suspension was prepared with fresh serum-free medium at a density of 2-3×10^5 cells/mL. Cells were inoculated, 100 μL/well cell suspension (serum-free medium) in the upper chamber and 600 μL/well complete culture medium in the lower chamber. After incubated in 37° C., 5% CO2 incubator for 4-5 hours, serum-free medium (100 μL/well) was added to the control group, and serum-free medium containing polypeptide or derivative thereof (N1-N54) was added to the upper chamber of the treatment group (100 μL/well), the final concentration of the peptide or derivative thereof in the upper chamber was 10 μM. The cells were incubated continuously for 24 hours, and then fixed with methanol and stained with crystal violet. Images were taken under a microscope and the number of invaded cells was counted with ImageJ.
This example was the transwell cell invasion experiment to evaluate the inhibitory effect of the polypeptide or derivative thereof (N1-N54) on the invasion ability of human pancreatic cancer cells (PANC-1). The experimental method was as described in Example 4.

[6] = test system: human non-small cell lung cancer cells (A549); test: scratch assay, migration of A549 cells; type: cell-based; settings: A549, 10 μM, 48 hours; control group 75.31 ± 8.19
Method: as §1
This example was a scratch assay to evaluate the inhibitory effect of the polypeptide or derivative thereof (N1-N54) on the migration ability of human non-small cell lung cancer (A549). The experimental method was as described in Example 2.

[7] = test system: human thyroid cancer cells (FRO); test: scratch assay, migration of FRO cells; type: cell-based; settings: 10 μM, 48 hours, control group 60.34 ± 8.32
Method: as §1
This example was a scratch assay to evaluate the inhibitory effect of the polypeptide or derivative thereof (N1-N54) on the migration ability of human thyroid cancer cells (FRO). The experimental method was as described in Example 2.

[8] = test system: human breast cancer cells (MDA-MB-231); test: scratch assay, migration of MDA-MB-231 cells; type: cell-based; settings: MDA-MB-231, 10 μM, 48 hours; control group 36.19 ± 5.15
Method: as §1
This example was a scratch assay to evaluate the inhibitory effect of the polypeptide or derivative thereof (N1-N54) on the migration ability of human breast cancer cells (MDA-MB-231). The experimental method was as described in Example 2.

[9] = test system: human melanoma cells (A375); test: scratch assay, migration of A375 cells; type: cell-based; settings: A375, 10 μM, 48 hours; control group 44.03 ± 6.21
Method: as §1
This example was a scratch assay to evaluate the inhibitory effect of the polypeptide or derivative thereof (N1-N54) on the migration ability of human melanoma cells (A375). The experimental method was as described in Example 2.

Substance | Migration rate (%) (mean ± SD, P) [1] | Weight of tumor (g) (mean ± SD) [2] | Volume of tumor (mm^3) (mean ± SD) [2] | Migration rate (%) (mean ± SD, P) [3] | Migration rate (%) (mean ± SD, P) [4] | Number of cells (mean ± SD, P), invaded cells [5] | Migration rate (%) (mean ± SD, P) [6] | Migration rate (%) (mean ± SD, P) [7] | Migration rate (%) (mean ± SD, P) [8] | Migration rate (%) (mean ± SD, P) [9]
N1: polypeptide with the amino acid sequence set forth in SEQ ID NO: 1 (YRVRFLAKENVTQDAEDN) | 27.31 ± 4.35,** % | 1.01 ± 0.2 | 1340.25 ± 319.59 | 18.89 ± 6.68,*** % | 10.27 ± 3.64,*** % | 83 ± 26,**** | 18.26 ± 8.77,** % | 7.45 ± 2.78,*** % | 21.83 ± 3.73,* % | 8.49 ± 2.99,*** %
N2: SEQ ID NO: 1 with deletion of one amino acid (position 18) at the carboxyl terminal (YRVRFLAKENVTQDAED) | 36.44 ± 4.16,** % | 0.6 ± 0.28 | 1297.28 ± 359.77 | 32.74 ± 4.26,** % | 23.42 ± 6.12,** % | 93 ± 19,**** | 47.79 ± 3.12,** % | 22.88 ± 5.43,** % | 20.92 ± 2.16,* % | 6.52 ± 1.25,*** %
N3: SEQ ID NO: 1 with deletion of position 18 and PEG modification at the amino terminal ({PEG}-YRVRFLAKENVTQDAED; reading uncertain) | 30.19 ± 5.91,** % | 0.56 ± 0.16 | 1511.56 ± 433.12 | 29.67 ± 5.64,*** % | 22.06 ± 4.59,** % | 111 ± 10,**** | 51.86 ± 2.15,** % | 3.51 ± 1.34,*** % | 21.98 ± 2.74,* % | 4.91 ± 1.19,*** %
N4: SEQ ID NO: 1 with deletion of positions 15-18 and positions 1-3 (RFLAKENVTQD) | 31.65 ± 3.82,** % | 0.56 ± 0.19 | 1515.07 ± 507.99 | 19.04 ± 8.54,*** % | 25.48 ± 2.79,** % | 37 ± 4,**** | 51.53 ± 3.72,* % | 11.34 ± 2.73,*** % | 21.44 ± 2.59,* % | 5.06 ± 2.32,*** %
N5: SEQ ID NO: 1 with addition of one amino acid at the carboxyl terminal and deletion of positions 1-3 (RFLAKENVTQDAEDNC) | 28.27 ± 5.00,** % | 0.71 ± 0.12 | 1353.09 ± 422.65 | 21.63 ± 6.16,*** % | 12.75 ± 2.82,*** % | 109 ± 7,**** | 46.66 ± 5.92,** % | 4.71 ± 1.90,*** % | 22.13 ± 3.22,* % | 9.82 ± 3.84,*** %
N6: SEQ ID NO: 1 with deletion of four amino acids at the carboxyl terminal (positions 15-18) (YRVRFLAKENVTQD) | 39.20 ± 4.24,** % | 0.88 ± 0.19 | 1361.03 ± 248.72 | 36.66 ± 5.57,** % | 18.13 ± 2.68,** % | 110 ± 5,**** | 40.67 ± 3.66,** % | 3.24 ± 1.80,*** % | 17.42 ± 4.98,* % | 11.22 ± 1.65,*** %
N7: SEQ ID NO: 1 with addition of one amino acid at the carboxyl terminal and substitution A15R (YRVRFLAKENVTQDREDNC) | 35.72 ± 3.68,** % | 0.81 ± 0.15 | 1189.39 ± 200.83 | 37.07 ± 7.83,** % | 20.09 ± 2.41,** % | 70 ± 17,**** | 48.64 ± 3.10,** % | 5.73 ± 2.04,*** % | 21.04 ± 2.46,* % | 8.95 ± 1.27,*** %
N8: SEQ ID NO: 1 with deletion of positions 15-18 and positions 3, 4 and 11 (YRFLAKENTQD) | 35.13 ± 4.45,** % | 1.02 ± 0.21 | 1359.06 ± 275.17 | 35.11 ± 5.96,** % | 16.96 ± 3.87,** % | 65 ± 16,**** | 32.62 ± 5.83,** % | 7.28 ± 2.89,*** % | 19.02 ± 3.53,* % | 4.74 ± 1.84,*** %
